target: human TrkA (Homo sapiens (Human), UniProt P04629); test: Human TrkA inhibition assay (Test Example 2); assay type: biochemical; conditions: Table 154, human TrkA inhibition; read-out: IC50
Procedure, shortened: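 Mobility-shift readout of phosphorylated versus unphosphorylated fluorescent peptide gave conversion ratio, normalized to DMSO and no-enzyme wells; IC50 by logistic fit of 10- or 15-point 3-fold dilutions. Conditions: 1 nmol/L enzyme, 15 min compound preincubation, then 500 μmol/L ATP plus 1.5 μmol/L peptide, 120 min, 37 °C.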

Sequence of human TrkA (P04629 440-796): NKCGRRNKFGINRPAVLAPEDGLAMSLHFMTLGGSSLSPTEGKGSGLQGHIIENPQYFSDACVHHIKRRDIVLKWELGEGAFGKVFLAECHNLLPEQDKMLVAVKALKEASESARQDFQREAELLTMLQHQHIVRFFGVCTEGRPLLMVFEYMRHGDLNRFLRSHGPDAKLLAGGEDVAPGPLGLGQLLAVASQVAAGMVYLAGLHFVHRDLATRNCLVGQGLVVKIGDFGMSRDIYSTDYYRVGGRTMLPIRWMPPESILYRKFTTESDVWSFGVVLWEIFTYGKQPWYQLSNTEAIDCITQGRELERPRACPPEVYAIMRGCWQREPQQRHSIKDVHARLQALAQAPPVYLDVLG

SMILES	IC50 [nM]
COCCN1C[C@@H](NC(=O)Nc2c(C)c(-c3cnc(OC)c(C(=O)NOCCF)c3)nn2-c2ccccc2)[C@H](c2ccnc(F)c2)O1 (racemic) [Compound I-261]	< 100
COCCN1C[C@@H](NC(=O)Nc2c(C)c(-c3ccc4c(c3)CS(=O)(=O)N4C)nn2-c2ccccc2)[C@H](c2ccnc(F)c2)O1 (racemic) [Compound I-262]	< 100
COCCN1C[C@@H](NC(=O)Nc2c(C)c(-c3cnc4c(c3)c(C(F)(F)F)nn4C)nn2-c2ccccc2)[C@H](c2ccnc(F)c2)O1 (racemic) [Compound I-264]	< 100
COCCN1C[C@@H](NC(=O)Nc2c(C)c(-c3cnc(N4CC(O)C4)nc3)nn2-c2ccccc2)[C@H](c2ccc(F)cc2)O1 (racemic) [Compound I-265]	< 100
COCCN1C[C@@H](NC(=O)Nc2c(C)c(-c3cnc(N4CCC4)nc3)nn2-c2ccccc2)[C@H](c2ccnc(F)c2)O1 (racemic) [Compound I-266]	< 100
COCCN1C[C@@H](NC(=O)Nc2c(C)c(-c3ccc4nnc(C)n4c3)nn2-c2ccccc2)[C@H](c2ccc(F)cc2)O1 (racemic) [Compound I-267]	< 100
COCCN1C[C@@H](NC(=O)Nc2c(C)c(-c3cnc4c(c3)c(=O)on4C)nn2-c2ccccc2)[C@H](c2ccnc(F)c2)O1 (racemic) [Compound I-269]	< 100
COCCN1C[C@@H](NC(=O)Nc2c(C)c(-c3cnc(S(C)(=O)=O)nc3)nn2-c2ccccc2)[C@H](c2ccnc(F)c2)O1 (racemic) [Compound I-270]	< 100
COCCN1C[C@@H](NC(=O)Nc2c(C)c(-c3cnc4c(c3)OCCN4C(=O)OC(C)(C)C)nn2-c2ccccc2)[C@H](c2ccnc(F)c2)O1 (racemic) [Compound I-280]	< 100
COCCN1C[C@@H](NC(=O)Nc2c(C)c(-c3cnc4c(c3)OCCN4)nn2-c2ccccc2)[C@H](c2ccnc(F)c2)O1 (racemic) [Compound I-281]	< 100
COCCN1C[C@@H](NC(=O)Nc2c(C)c(-c3ccc4nc(C(N)=O)cn4c3)nn2-c2ccccc2)[C@H](c2ccnc(F)c2)O1 (racemic) [Compound I-282]	< 100
COCCN1C[C@@H](NC(=O)Nc2c(C)c(-c3ccc(N4CCCC4)nc3)nn2-c2ccccc2)[C@H](c2ccnc(F)c2)O1 (racemic) [Compound I-283]	< 100
COCCN1C[C@@H](NC(=O)Nc2c(C)c(-c3ccn4c(C)nnc4c3)nn2-c2ccccc2)[C@H](c2ccc(F)cc2)O1 (racemic) [Compound I-284]	< 100
COCCN1C[C@@H](NC(=O)Nc2c(C)c(-c3cnc(N4CC(OC(=O)c5ccccc5)C4)nc3)nn2-c2ccccc2)[C@H](c2cc(F)nc(F)c2)O1 (racemic) [Compound I-286]	< 100
COCCN1C[C@@H](NC(=O)Nc2c(C)c(-c3cnc(C)s3)nn2-c2ccccc2)[C@H](c2ccnc(F)c2)O1 (racemic) [Compound I-287]	< 100
COCCN1C[C@@H](NC(=O)Nc2c(C)c(-n3cnc(C)c3)nn2-c2ccccc2)[C@H](c2cnc(F)c(F)c2)O1 (racemic) [Compound I-297]	< 100
COCCN1C[C@@H](NC(=O)Nc2c(C)c(-c3cnc(F)nc3)nn2-c2ccccc2)[C@H](c2ccnc(F)c2)O1 (racemic) [Compound I-300]	< 100
COCCN1C[C@@H](NC(=O)Nc2c(C)c(-c3cc(C(N)=O)c(=O)n(C)n3)nn2-c2ccccc2)[C@H](c2ccnc(F)c2)O1 (racemic) [Compound I-301]	< 100
Cc1c(-c2cnn(C)c2)nn(-c2ccccc2)c1NC(=O)N[C@@H]1CN(CC(F)(F)F)O[C@H]1c1ccc(F)c(F)c1 (racemic) [Compound I-304]	100 to 1000
Cc1c(-c2cnc3c(cnn3C)c2)nn(-c2ccccc2)c1NC(=O)N[C@@H]1CN(CC(F)(F)F)O[C@H]1c1ccc(F)c(F)c1 (racemic) [Compound I-305]	< 100
COCCN1C[C@@H](NC(=O)Nc2c(C)c(-c3cnc4c(c3)NCCO4)nn2-c2ccccc2)[C@H](c2ccnc(F)c2)O1 (racemic) [Compound I-306]	< 100

Results, then the compound that gave them:

IC50 [nM]	SMILES
< 100	COCCN1C[C@@H](NC(=O)Nc2c(C)c(-c3cnc(OC)c(C#N)c3)nn2-c2ccccc2)[C@H](c2ccnc(F)c2)O1 (racemic) [Compound I-307]
< 100	COCCN1C[C@@H](NC(=O)Nc2c(C)c(-c3cnc(OC)c(C(C)(C)O)c3)nn2-c2ccccc2)[C@H](c2ccnc(F)c2)O1 (racemic) [Compound I-308]
< 100	COCCN1C[C@@H](NC(=O)Nc2c(C)c(-c3cnc(C(N)=O)c(F)c3)nn2-c2ccccc2)[C@H](c2cnc(F)c(F)c2)O1 (racemic) [Compound I-311]
< 100	COCCN1C[C@@H](NC(=O)Nc2c(C)c(-c3cnc(C(N)=O)c(Cl)c3)nn2-c2ccccc2)[C@H](c2ccnc(F)c2)O1 (racemic) [Compound I-316]
< 100	COCCN1C[C@@H](NC(=O)Nc2c(C)c(-c3cnc(C(N)=O)c(OC)c3)nn2-c2ccccc2)[C@H](c2ccnc(F)c2)O1 (racemic) [Compound I-317]
< 100	COCCN1C[C@@H](NC(=O)Nc2c(C)c(-c3cnc(OC)c(C(=O)NOCC(C)(C)O)c3)nn2-c2ccccc2)[C@H](c2cnc(F)c(F)c2)O1 (racemic) [Compound I-318]

same assay, conditions: Table 155, human TrkA inhibition; read-out: IC50

IC50 [nM]	SMILES
< 100	COCCN1C[C@@H](NC(=O)Nc2c(C)c(-c3cnc4c(c3)ncn4C)nn2-c2ccccc2)[C@H](c2cc(F)nc(F)c2)O1 (racemic) [Compound I-320]
< 100	COCCN1C[C@@H](NC(=O)Nc2c(C)c(-c3cnc(N4CC(O)C4)nc3)nn2-c2ccccc2)[C@H](c2cc(F)nc(F)c2)O1 (racemic) [Compound I-321]
< 100	COCCN1C[C@@H](NC(=O)Nc2c(C)c(-c3ccc(OC)nc3)nn2-c2ccccc2)[C@H](c2ccnc(F)c2)O1 (racemic) [Compound I-323]
< 100	COCCN1C[C@@H](NC(=O)Nc2c(C)c(-c3cnc(N4CCOCC4)nc3)nn2-c2ccccc2)[C@H](c2ccnc(F)c2)O1 (racemic) [Compound I-324]
< 100	COCCN1C[C@@H](NC(=O)Nc2c(C)c(-c3cnc4c(c3)N3C(=O)OCC3CO4)nn2-c2ccccc2)[C@H](c2ccnc(F)c2)O1 (mixture of isomers) [Compound I-326]
< 100	COCCN1C[C@@H](NC(=O)Nc2c(C)c(-c3ccc(C)nc3)nn2-c2ccccc2)[C@H](c2ccnc(F)c2)O1 (racemic) [Compound I-327]
< 100	COCCN1C[C@@H](NC(=O)Nc2c(C)c(-c3cnc(OC(F)F)nc3)nn2-c2ccccc2)[C@H](c2ccnc(F)c2)O1 (racemic) [Compound I-328]
< 100	COCCN1C[C@@H](NC(=O)Nc2c(C)c(-c3cnc4nn(C(F)F)cc4c3)nn2-c2ccccc2)[C@H](c2ccnc(F)c2)O1 (racemic) [Compound I-331]
< 100	COCCN1C[C@@H](NC(=O)Nc2c(C)c(N3CC(c4ccc(F)cc4)C3)nn2-c2ccccc2)[C@H](c2ccnc(F)c2)O1 (racemic) [Compound I-335]
< 100	COCCN1C[C@@H](NC(=O)Nc2c(C)c(N3CC(c4ccc(F)cc4)C3)nn2-c2ccccc2)[C@H](c2cnc(F)c(F)c2)O1 (racemic) [Compound I-336]
< 100	COCCN1C[C@@H](NC(=O)Nc2c(C)c(-c3cnc4c(c3)OCC(=O)N4)nn2-c2ccccc2)[C@H](c2cnc(F)c(F)c2)O1 (racemic) [Compound I-337]
< 100	COCCN1C[C@@H](NC(=O)Nc2c(C)c(-c3cnc4c(c3)N(C)C(CO)CO4)nn2-c2ccccc2)[C@H](c2ccnc(F)c2)O1 (mixture of isomers) [Compound I-338]
< 100	COCCN1C[C@@H](NC(=O)Nc2c(C)c(-c3cnc(C(=O)NC4CC4)c(OC)c3)nn2-c2ccccc2)[C@H](c2ccnc(F)c2)O1 (racemic) [Compound I-339]
< 100	COCCN1C[C@@H](NC(=O)Nc2c(C)c(-c3cnc4c(c3)N(C)CCO4)nn2-c2ccccc2)[C@H](c2ccnc(F)c2)O1 (racemic) [Compound I-340]
< 100	COCCN1C[C@@H](NC(=O)Nc2c(C)c(-c3cnc4c(c3)N(C(C)=O)CCO4)nn2-c2ccccc2)[C@H](c2ccnc(F)c2)O1 (racemic) [Compound I-341]

same assay, conditions: human TrkA 1 nmol/L, ATP 500 μmol/L, 120 min at 37° C.; read-out: IC50 values (TrkA phosphorylation inhibition)

SMILES	IC50 [nM]
COCCN1C[C@@H](NC(=O)Nc2c(C)c(-c3ccc(N4CCC(O)CC4)nc3)nn2-c2ccccc2)[C@H](c2ccnc(F)c2)O1 (racemic) [Compound I-278]	3.7
COCCN1C[C@@H](NC(=O)Nc2c(C)c(-c3cnc4c(c3)OCC(=O)N4)nn2-c2ccccc2)[C@H](c2ccnc(F)c2)O1 (racemic) [Compound I-279]	2
COCCN1C[C@@H](NC(=O)Nc2c(C)c(-c3cnc(C)nc3)nn2-c2ccccc2)[C@H](c2cc(F)nc(F)c2)O1 (racemic) [Compound I-285]	2.7
COCCN1C[C@@H](NC(=O)Nc2c(C)c(-c3cnc4c(c3)CC(=O)N4C)nn2-c2ccccc2)[C@H](c2ccnc(F)c2)O1 (racemic) [Compound I-291]	2
COCCN1C[C@@H](NC(=O)Nc2c(C)c(-c3cnc4[nH]ncc4c3)nn2-c2ccccc2)[C@H](c2ccnc(F)c2)O1 (racemic) [Compound I-299]	2.1
CNC(=O)c1cc(-c2nn(-c3ccccc3)c(NC(=O)N[C@@H]3CN(CCOC)O[C@H]3c3ccnc(F)c3)c2C)nn(C)c1=O (racemic) [Compound I-302]	8.2
COCCN1C[C@@H](NC(=O)Nc2c(C)c(-c3cnc4c(c3)CC(=O)N4C)nn2-c2ccccc2)[C@H](c2cnc(F)c(F)c2)O1 (racemic) [Compound I-303]	1.5

Other lines, results leading:

IC50 [nM]	SMILES
2	COCCN1C[C@@H](NC(=O)Nc2c(C)c(-c3ccc4nc(C(N)=O)cn4c3)nn2-c2ccccc2)[C@H](c2cnc(F)c(F)c2)O1 (racemic) [Compound I-309]
3.6	CNC(=O)c1ncc(-c2nn(-c3ccccc3)c(NC(=O)N[C@@H]3CN(CCOC)O[C@H]3c3cnc(F)c(F)c3)c2C)cc1F (racemic) [Compound I-313]

— patent publication US10640495B2, “Heterocycle derivatives having TrkA inhibitory activity” (Shionogi & Co., Ltd., priority 2015, dated 2020)
